Measured values taken from patent US10100058B2, “Fused heterocyclic compounds as CaM kinase inhibitors” (Gilead Sciences, Inc., priority 2016, dated 2018).

Target: recombinant CaMKIIδ (Homo sapiens (Human), UniProt Q13557)
Test: CaMKIIδ biochemical assay (HTRF)
Details: 10 pM CaMKIIδ, 110 nM calmodulin, 12 μM ATP, 1 hour; read-out: CAMKIID-HTRF-384V2 (IC50 - nM)
Experimental: CaMKIIδ Biochemical Assay
The biochemical activity of recombinant CaMKIIδ was measured by monitoring the phosphorylation of a target peptide using Homogenous Time Resolved Fluorescence (HTRF) technology from CisBio Bioassays.

SMILES | IC50 [nM]
CCN(CC)[C@@H](C)CNC(=O)c1cc(NC(=O)C(C)C)nc(-c2cnn3ccc(-c4cccs4)nc23)c1 [Example 189, (S)—N-(2-(diethylamino)propyl)-2-isobutyramido-6-(5-(thiophen-2-yl)pyrazolo[1,5-a]pyrimidin-3-yl)isonicotinamide] | 0.45
CCN(CC)c1cc(C(=O)NC[C@H](C)N(CC)CC)cc(-c2cnn3ccc(-c4cccs4)nc23)n1 [Example 260, (S)-2-(diethylamino)-N-(2-(diethylamino)propyl)-6-(5-(thiophen-2-yl)pyrazolo[1,5-a]pyrimidin-3-yl)isonicotinamide] | 1.71
C[C@@]1(CNC(=O)c2ccnc(-c3cnn4ccc(-c5cccs5)nc34)c2)CCCN1 [Example 12, (S)—N-((2-methylpyrrolidin-2-yl)methyl)-2-(5-(thiophen-2-yl)pyrazolo[1,5-a]pyrimidin-3-yl)isonicotinamide] | 14.9
CC(C)N[C@@H](C)CNC(=O)c1ccnc(-c2cnn3ccc(-c4cccs4)nc23)c1 [Example 32, (S)—N-(2-(isopropylamino)propyl)-2-(5-(thiophen-2-yl)pyrazolo[1,5-a]pyrimidin-3-yl)isonicotinamide] | 18
CCN(CC)[C@@H](C)CNC(=O)c1cc(-c2cnn3ccc(-c4cccs4)nc23)nc(N2CCC[C@@H]2C(=O)NC)c1 [Example 320, N—((S)-2-(diethylamino)propyl)-2-((R)-2-(methylcarbamoyl)pyrrolidin-1-yl)-6-(5-(thiophen-2-yl)pyrazolo[1,5-a]pyrimidin-3-yl)isonicotinamide] | 32.8
CCN(CC)CCNC(=O)c1cc(NCCO)nc(-c2cnn3ccc(-c4cccs4)nc23)c1 [Example 259, N-(2-(diethylamino)ethyl)-2-((2-hydroxyethyl)amino)-6-(5-(thiophen-2-yl)pyrazolo[1,5-a]pyrimidin-3-yl)isonicotinamide] | 1.02
CCN(CC)[C@@H](C)CNC(=O)c1cc(-c2cnn3ccc(-c4cccs4)nc23)nc(N2CCO[C@H](CO)C2)c1 [Example 264, N—((S)-2-(diethylamino)propyl)-2-((S)-2-(hydroxymethyl)morpholino)-6-(5-(thiophen-2-yl)pyrazolo[1,5-a]pyrimidin-3-yl)isonicotinamide] | 0.2
CCN(CC)[C@@H](C)CNC(=O)c1cc(-c2cnn3ccc(-c4cccs4)nc23)nc(N2CCC[C@H]2CO)c1 [Example 271, N—((S)-2-(diethylamino)propyl)-2-((S)-2-(hydroxymethyl)pyrrolidin-1-yl)-6-(5-(thiophen-2-yl)pyrazolo[1,5-a]pyrimidin-3-yl)isonicotinamide] | 0.31
CCN(CC)[C@@H](C)CNC(=O)c1cc(-c2cnn3ccc(-c4cccs4)nc23)nc(N2CCC23COC3)c1 [Example 234, (S)—N-(2-(diethylamino)propyl)-2-(6-oxa-1-azaspiro[3.3]heptan-1-yl)-6-(5-(thiophen-2-yl)pyrazolo[1,5-a]pyrimidin-3-yl)isonicotinamide] | 1.28
C[C@@H](CNC(=O)c1ccnc(-c2cnn3ccc(-c4cccs4)nc23)c1)NCCO [Example 21, (S)—N-(2-((2-hydroxyethyl)amino)propyl)-2-(5-(thiophen-2-yl)pyrazolo[1,5-a]pyrimidin-3-yl)isonicotinamide] | 27.8
CCN[C@H](C)CNC(=O)c1ccnc(-c2cnn3ccc(-c4cccs4)nc23)c1 [Example 33, (R)—N-(2-(ethylamino)propyl)-2-(5-(thiophen-2-yl)pyrazolo[1,5-a]pyrimidin-3-yl)isonicotinamide] | 8.44
COC1CN(c2cc(C(=O)NCC3(N)CCC3)cc(-c3cnn4ccc(-c5ccccc5)nc34)n2)C1 [Example 159, N-((1-aminocyclobutyl)methyl)-2-(3-methoxyazetidin-1-yl)-6-(5-phenylpyrazolo[1,5-a]pyrimidin-3-yl)isonicotinamide] | 84.6
CC(C)C(CNC(=O)c1ccnc(-c2cnn3ccc(-c4ccccc4)nc23)c1)NCC1CC1 (stereo not drawn) [Example 52, N-(2-((cyclopropylmethyl)amino)-3-methylbutyl)-2-(5-phenylpyrazolo[1,5-a]pyrimidin-3-yl)isonicotinamide] | 4.98
N[C@H](CNC(=O)c1ccnc(-c2cnn3ccc(-c4ccccc4)nc23)c1)COc1ncccn1 [Example 66, (R)—N-(2-amino-3-(pyrimidin-2-yloxy)propyl)-2-(5-phenylpyrazolo[1,5-a]pyrimidin-3-yl)isonicotinamide] | 205
CCN(CC)[C@@H](C)CNC(=O)c1cc(-c2cnoc2)nc(-c2cnn3ccc(-c4cccs4)nc23)c1 [Example 335, (S)—N-(2-(diethylamino)propyl)-2-(isoxazol-4-yl)-6-(5-(thiophen-2-yl)pyrazolo[1,5-a]pyrimidin-3-yl)isonicotinamide] | 0.29
CCC(CNC(=O)c1cc(-c2cnn3ccc(-c4cccs4)nc23)nc(N2CC[C@H]2C(=O)NC)c1)N(CC)CC (stereo partly drawn) [Example 356, N-(2-(diethylamino)butyl)-2-((S)-2-(methylcarbamoyl)azetidin-1-yl)-6-(5-(thiophen-2-yl)pyrazolo[1,5-a]pyrimidin-3-yl)isonicotinamide] | 0.7
CCCNC(CNC(=O)c1ccnc(-c2cnn3ccc(-c4ccccc4)nc23)c1)C(C)C (stereo not drawn) [Example 53, N-(3-methyl-2-(propylamino)butyl)-2-(5-phenylpyrazolo[1,5-a]pyrimidin-3-yl)isonicotinamide] | 4.79
NC[C@H]1CCCN1C(=O)c1ccnc(-c2cnn3ccc(-c4cccs4)nc23)c1 [Example 79, (R)-(2-(aminomethyl)pyrrolidin-1-yl)(2-(5-(thiophen-2-yl)pyrazolo[1,5-a]pyrimidin-3-yl)pyridin-4-yl)methanone] | 2.85
CCN(CC)CCNC(=O)c1cc(-c2cnn3ccc(-c4cccs4)nc23)nc(N2CC[C@H]2C(=O)NC)c1 [Example 360, (S)—N-(2-(diethylamino)ethyl)-2-(2-(methylcarbamoyl)azetidin-1-yl)-6-(5-(thiophen-2-yl)pyrazolo[1,5-a]pyrimidin-3-yl)isonicotinamide] | 2.98
CCN(CC)[C@@H](C)CNC(=O)c1cc(-c2cnn3ccc(-c4cccs4)nc23)nc(-n2cncn2)c1 [Example 252, (S)—N-(2-(diethylamino)propyl)-2-(5-(thiophen-2-yl)pyrazolo[1,5-a]pyrimidin-3-yl)-6-(1H-1,2,4-triazol-1-yl)isonicotinamide] | 1.87
CNC(=O)[C@@H]1CCN1c1cc(C(=O)NC[C@H](C)N)cc(-c2cnn3ccc(-c4cccs4)nc23)n1 [Example 305, N—((S)-2-aminopropyl)-2-((S)-2-(methylcarbamoyl)azetidin-1-yl)-6-(5-(thiophen-2-yl)pyrazolo[1,5-a]pyrimidin-3-yl)isonicotinamide] | 51.7
CCN(CC)[C@@H](C)CNC(=O)c1cc(-c2cnn3ccc(-c4cccs4)nc23)nc(N2CC(NS(=O)(=O)C3CC3)C2)c1 [Example 154, (S)-2-(3-(cyclopropanesulfonamido)azetidin-1-yl)-N-(2-(diethylamino)propyl)-6-(5-(thiophen-2-yl)pyrazolo[1,5-a]pyrimidin-3-yl)isonicotinamide] | 0.28
CCN(CC)[C@@H](C)CNC(=O)c1cc(-c2cnn3ccc(-c4cccs4)nc23)nc(N2CC(NS(C)(=O)=O)C2)c1 [Example 197, (S)—N-(2-(diethylamino)propyl)-2-(3-(methylsulfonamido)azetidin-1-yl)-6-(5-(thiophen-2-yl)pyrazolo[1,5-a]pyrimidin-3-yl)isonicotinamide] | 0.09
CCN(CC)[C@@H](C)CNC(=O)c1cc(-c2cnn3ccc(-c4ccccc4)nc23)nc(N2CC[C@H]2C(=O)NC)c1 [Example 309, N—((S)-2-(diethylamino)propyl)-2-((S)-2-(methylcarbamoyl)azetidin-1-yl)-6-(5-phenylpyrazolo[1,5-a]pyrimidin-3-yl)isonicotinamide] | 2.16
CCN(CC)[C@@H](C)CNC(=O)c1cc(NCCC(C)(C)O)nc(-c2cnn3ccc(-c4cccs4)nc23)c1 [Example 221, (S)—N-(2-(diethylamino)propyl)-2-((3-hydroxy-3-methylbutyl)amino)-6-(5-(thiophen-2-yl)pyrazolo[1,5-a]pyrimidin-3-yl)isonicotinamide] | 0.13
CCN(CC)[C@@H](C)CNC(=O)c1cc(-c2cnn3ccc(-c4ccccc4)nc23)nc(N2CC(OC)C2)c1 [Example 160, (S)—N-(2-(diethylamino)propyl)-2-(3-methoxyazetidin-1-yl)-6-(5-phenylpyrazolo[1,5-a]pyrimidin-3-yl)isonicotinamide] | 1.15
CCN(CC)[C@@H](C)CNC(=O)c1cc(-c2cnn3ccc(-c4cccs4)nc23)nc(N2CCC[C@@H]2CO)c1 [Example 272, N—((S)-2-(diethylamino)propyl)-2-((R)-2-(hydroxymethyl)pyrrolidin-1-yl)-6-(5-(thiophen-2-yl)pyrazolo[1,5-a]pyrimidin-3-yl)isonicotinamide] | 0.14
N[C@@H](CO)CNC(=O)c1ccnc(-c2cnn3ccc(-c4ccccc4)nc23)c1 [Example 57, (R)—N-(2-amino-3-hydroxypropyl)-2-(5-phenylpyrazolo[1,5-a]pyrimidin-3-yl)isonicotinamide] | 26.5
CCN(CC)[C@@H](C)CNC(=O)c1cc(-c2cnn3ccc(-c4cccs4)nc23)nc(N2CC(NC(=O)N(C)C)C2)c1 [Example 195, (S)—N-(2-(diethylamino)propyl)-2-(3-(3,3-dimethylureido)azetidin-1-yl)-6-(5-(thiophen-2-yl)pyrazolo[1,5-a]pyrimidin-3-yl)isonicotinamide] | 0.28
CCN(CC)[C@@H](C)CNC(=O)c1cc(-c2cnn3ccc(-c4ccns4)nc23)nc(N2CC[C@H]2C(=O)NC)c1 [Example 307, N—((S)-2-(diethylamino)propyl)-2-(5-(isothiazol-5-yl)pyrazolo[1,5-a]pyrimidin-3-yl)-6-((S)-2-(methylcarbamoyl)azetidin-1-yl)isonicotinamide] | 0.27
